Assay results: patent US20190255042A1, “APPLICATION OF HEDGEHOG PATHWAY INHIBITOR IN TREATING FIBROSIS DISEASES” (IMPACT THERAPEUTICS, INC, priority 2016, published 2019)

Assays:
[1] = tested on: unilateral pulmonary fibrosis model in SD rats; experiment: Prophylactic therapeutic efficacy in unilateral pulmonary fibrosis model in SD rats (bleomycin); type: in vivo; design: key to Fibrosis score (Ashcraft): Ashcraft semi-quantitative fibrosis score; Evaluation of injury and inflammatory lesions of left lung: Fibrotic lesion edge / Evaluation of injury and inflammatory lesions of left lung: Fibrosis lesion: scale not given here
Experimental: 40 male SD rats were randomized into Model group (Group 1, n=8), positive drug group BIBF1120 60 mg/kg/d group (Group 2, n=8), Compound A 5 mg/kg/d group (Group 3, n=8), compound A 10 mg/kg/d group (Group 4, n=8) and Compound A 20 mg/kg/d (Group 5, n=8). On the modeling day, rats were anesthetized and exposed to trachea. Bleomycin was injected into trachea of each group (dosage: 3 mg/kg, volume: 1.0 ml/kg). Oral administration was performed 2 hours after modeling, once a day. On Day 15, all the animals were killed, the left lung was taken, the weight and volume of the left lung were measured, then fixed by formalin, the bronchioles were stained with HE, Masson trichrome. The bronchioles, final bronchiole and small pulmonary artery injury and inflammation invasion were evaluated by semi-quantitative score, and pulmonary fibrosis was evaluated by Ashcraft semi-quantitative score.

[2] = tested on: unilateral pulmonary fibrosis model in SD rats; experiment: Therapeutic efficacy in unilateral pulmonary fibrosis model in SD rats (bleomycin, dosing from D8); type: in vivo; design: Evaluation of injury and inflammatory lesions of left lung: Fibrotic lesion edge / Evaluation of injury and inflammatory lesions of left lung: Fibrosis lesion: scale not given here; settings: for Expression of Type I collagen (%) / Expression of α-SMA protein (%): left lung immunohistochemistry; for Evaluation of injury and inflammatory lesions of left lung: Fibrosis lesion / Evaluation of injury and inflammatory lesions of left lung: Fibrotic lesion edge: HE score; for Fibrosis area (left pulmonary): Masson trichrome
Experimental: On the modeling day, rats were anesthetized and exposed to trachea. Bleomycin was injected into left trachea of each group (dosage: 3 mg/kg, volume: 1.0 ml/kg). Oral administration was performed on Day 8 after modeling, once a day. On Day 22, according to the KCI animal euthanasia SOP, animals in each group were given an overdose of sodium barbiturate and sacrificed under intraperitoneal anesthesia, the left lung was taken, the weight and volume of the left lung were measured, then fixed by formalin, the bronchioles were stained with HE, Masson trichrome. The bronchioles, final bronchiole and small pulmonary artery injury and inflammation invasion were evaluated by semi-quantitative score, and pulmonary fibrosis was evaluated by Ashcraft semi-quantitative score. Immunohistochemical staining of α-SMA, Type I collagen (Collagen-I) were performed at the same time, a full scan was performed by Hamamatsu NanoZoomer Digital Pathology (S210), the α-SMA positive area was semiquantitatively calculated from the unit area of the whole sheelt in pulmonary fibrosis foci, and the positive staining area of type-I collagent per unit of area was calculated.

[3] = tested on: lung fibrosis model in mice induced by bleomycin; experiment: Therapeutic efficacy in lung fibrosis model in mice induced by bleomycin; type: in vivo, C57BL/6 mice; settings: n = 10, Mean ± Sem
Experimental: Experimental Methods: 60 male C57BL/6 mice were randomize into 6 groups: Blank control group (Group 1, n=10), model group (Group 2, BLM, n=10), Compound A 10 mpk group (Group 3, n=10), compound A 20 mpk group (Group 4, n=10), Compound A 20 mpk +BIBF1120 50 mpk (Group 5, n=10), and BIBF1120 50 mpk positive reference group (Group 6, n=10). One week after the mice were acclimated to the environment, 10 mice in the blank control group were given 50 μl of normal saline in the trachea, and other 50 mice were given 50 μl BLM (0.66 mg/kg, 2 ml/kg) in the trachea. After BLM infusion, 50 mice in BLM infusion group were randomly assigned to start treatment on the 5th day, once a day, with a treatment cycle of 20 days. The whole process was 25 days. After the experiment, the lung tissues were fixed in 10% neutral formalin, dehydrated by alcohol gradient, embedded with paraffin, stained by hematoxylin-eosin (H&E) and Masson trichrome staining. And the inflammatory area and degree of fibrosis of the lung tissues in mice were evaluated by APERIO ScanScope. Immunohistochemical staining of lung tissue was performed to quantify α-SMA positive fibroblasts in lung tissue and to calculate the percentage (%) of α-SMA staining in the entire lung stroma.

[4] = tested on: bleomycin-induced lung injury in a mouse model; settings: Moshai et al., 2014; cited from earlier work
[5] = tested on: foodborne non-alcoholic fatty hepatitis (NASH) model in mice; settings: Hirsova et al., Plos One 2013; cited from earlier work
[6] = 60 mg/kg/d oral from modeling day, D15, HE score, mean ± sem, n = 8
[7] = 60 mg/kg/d oral from modeling day, D15, mean ± sem, n = 8
[8] = 100 mpk oral D8 to D22, mean ± sem, n = 6
[9] = 100 mpk oral D8 to D22 after modeling, mean ± sem
[10] = 50 mpk oral D8 to D22, mean ± sem, n = 8
[11] = 50 mpk oral D8 to D22 after modeling, mean ± sem

## COC(=O)c1ccc2c(c1)NC(=O)/C2=C(\Nc1ccc(N(C)C(=O)CN2CCN(C)CC2)cc1)c1ccccc1 [BIBF1120, Nintedanib ethylsulfonate, reference compound]
[1]; [6]
  Evaluation of injury and inflammatory lesions of left lung: Fibrosis lesion: 7.88 ± 0.48
  Evaluation of injury and inflammatory lesions of left lung: Fibrotic lesion edge: 5.50 ± 0.25
[1]; 60 mg/kg/d oral from modeling day, D15, Masson trichrome, mean ± sem, n = 8
  Fibrosis area (left pulmonary fibrosis): 77.85 ± 10.90
[1]; [7]
  Fibrosis Score 1-3 (%): 75.00 ± 23.90%
  Fibrosis Score 4-8 (%): 25.00 ± 23.90%
  Fibrosis score (Ashcraft): 3.15 ± 0.65
  Volume of left lung: 1.24 ± 0.17 cm^3
  Weight of left lung: 1.18 ± 0.14 g
[1]; BIBF1120 60 mg/kg/d, compound A 5, 10, 20 mg/kg/d
  average score of fibrosis in the entire fibrosis lesion (ashcraft): about 3 points
[2]; [8]
  Expression of Type I collagen (%): 18.99 ± 1.19%
  Expression of α-SMA protein (%): 7.36 ± 0.55%
[2]; [9]
  Evaluation of injury and inflammatory lesions of left lung: Fibrosis lesion: 7.00 ± 0.36
  Evaluation of injury and inflammatory lesions of left lung: Fibrotic lesion edge: 5.31 ± 0.28
  Fibrosis area (left pulmonary): 73.81 ± 1.14
  Fibrosis Score 1-3 (%): 88.33 ± 4.01%
  Fibrosis Score 4-8 (%): 11.67 ± 4.01%
  Fibrosis score (Ashcraft): 2.55 ± 0.18
  Volume of left lung: 1.23 ± 0.09 cm^3
  Weight of left lung: 1.31 ± 0.09 g
[3]; 50 mpk oral D5 to D25
  Inflammatory infiltration area: 4.33 ± 1.39 mm^2
  Total lung tissue area: 87.02 ± 4.05 mm^2
[3]; 50 mpk oral D5 to D25, ###p < 0.001 vs. BLM model group
  Percentage of inflammatory area (%): 4.67 ± 1.32^### %
[3]; BIBF1120 50 mpk oral D5 to D25, lung tissue immunohistochemical staining
  Percentage of positive α-SMA (%): 0.96 ± 0.20%

## CN(C)c1ccccc1CN1CCCN(Cc2ccccc2N(C)C)C1c1ccncc1 [GANT61]
[4]
  efficacy on pulmonary fibrosis: good therapeutic effect

## CS(=O)(=O)c1ccc(C(=O)Nc2ccc(Cl)c(-c3ccccn3)c2)c(Cl)c1 [GDC0449, vismodegib, reference compound]
[2]; 14 consecutive days, BIBF1120 100, Compound A 5, 15, 30, GDC0449 50 mg/kg/d, p<0.001
  damage and inflammatory response of terminal bronchioles within fibrosis lesions and pulmonary small artery compared with model group: significantly reduced
[2]; [10]
  Expression of Type I collagen (%): 19.06 ± 0.70%
  Expression of α-SMA protein (%): 7.74 ± 0.59%
[2]; [11]
  Evaluation of injury and inflammatory lesions of left lung: Fibrosis lesion: 6.38 ± 0.17
  Evaluation of injury and inflammatory lesions of left lung: Fibrotic lesion edge: 4.80 ± 0.22
  Fibrosis area (left pulmonary): 67.96 ± 3.70
  Fibrosis Score 1-3 (%): 95.00 ± 2.67%
  Fibrosis Score 4-8 (%): 5.00 ± 2.67%
  Fibrosis score (Ashcraft): 2.16 ± 0.11
  Weight of left lung: 1.29 ± 0.09 g
[2]; BIBF1120 100, Compound A 5, 15, 30, GDC0449 50 mg/kg/d, p<0.01
  degree of pulmonary fibrosis (Ashcraft score) compared with model group: significantly better
[2]; BIBF1120 100 mpk, Compound A 5 mpk, GDC0449 50 mpk
  amount of Type I collagen deposition in the fibrotic lesions compared with model group: no significant difference
[2]; BIBF1120 100 mpk, GDC0449 50 mpk
  positive rate of α-SMA in fibrosis lesions per unit area compared with model group: no significant difference
[2]; compound A 5, 15 and 30 mg/kg, GDC0449 50 mg/kg/d, 14 consecutive days
  treatment effect on fibrosis compared with BIBF1120 100 mg/kg/d: the same as that of BIBF1120
[5]
  effect on liver injury, hepatic inflammation and fibrosis: attenuating hepatic inflammation and fibrosis
[4]
  efficacy on pulmonary fibrosis: no efficacy
